Data reported in patent publication US7371864B2, “Crystalline forms of a factor Xa inhibitor” (Bristol-Myers Squibb Company, priority 2004, dated 2008).

Experiments:
[1] = Relative thermodynamic stability of crystalline forms; type: physicochemical
[2] = Moisture sorption isotherms (VTI SGA-100 Symmetric Vapor Analyzer); type: physicochemical; conditions: 25° C., 4-95% RH
Method: Moisture sorption isotherms for N-1 were collected in a VTI SGA-100 Symmetric Vapor Analyzer using about 10 mg sample. The sample was dried at 60° C. until the loss rate of 0.0005 wt %/min was obtained for 10 minutes. The sample was tested at 25° C. and 4, 5, 15, 25, 35, 45, 50, 65, 75, 85, and 95% RH. Equilibration at each RH was reached when the rate of 0.0003 wt %/min for 35 minutes or a maximum of 600 minutes was achieved.

## COc1ccc(-n2nc(C(C)(C)O)c3c2C(=O)N(c2ccc(-n4ccccc4=O)cc2)CC3)cc1 [Form N-1, 3-(1-hydroxy-1-methyl-ethyl)-1-(4-methoxy-phenyl)-6-[4-(2-oxo-2H-pyridin-1-yl)-phenyl]-1,4,5,6-tetrahydro-pyrazolo[3,4-c]pyridin-7-one]
[1]; all temperatures, inferred from Form N-3 melting ˜40° C. lower than Form N-1
  stability relative to Form N-3 (monotropic relationship): more stable at all temperatures
[1]; room temperature
  thermodynamic stability relative to other crystalline forms: thermodynamically more stable form
[2]
  hygroscopicity from moisture sorption isotherms: essentially non-hygroscopic
